Experimental data taken from patent US8772576B2, “Herbicide-resistant inoculant strains” (priority 2009, dated 2014).

Experiments:
parent strain ABM201 = test: Growth of parent strain on Vincent's YEM agar amended with glyphosate; type: cell-based, Bradyrhizobium japonicum
Procedure: (§1) After the plates were sufficiently dry, about 10^8 to 5×10^8 colony-forming units (CFU) of the parent bacteria (ABM201) (Advanced Biological Marketing, Van Wert, Ohio), determined by serial dilution and plating on nonselective medium, were spread with a sterile, bent glass rod. The plates were carefully wrapped with Parafilm® to prevent the desiccation of the agar growth medium during prolonged incubation. The plates were then incubated at room temperature to 30° C. for approximately 2 to 3 weeks.

[1] = system: herbicide resistant mutants of B. japonicum strain ABM 201; test: Growth of glyphosate-resistant mutant on Vincent's YEM agar amended with glyphosate; type: cell-based, Bradyrhizobium japonicum; details: 80 ppm glyphosate; exemplary embodiment (resistant mutant)
Procedure: as §1
Colonies that developed resembled the parent strain and its growth characteristics on non-selective YEM medium. The colonies were convex, entirely opaque, smooth, and only about 1 mm in diameter after 10-14 days of incubation. Mutant frequency was about 5×10^−7 to 1×10^−6.

O=C(O)CNCP(=O)(O)O [glyphosate, N-(phosphonomethyl)glycine]
glyphosate concentration that totally inhibits the parent strain (parent strain ABM201): less than 40 ppm | growth and viability on glyphosate [1]: normal growth and viability
